Measured values published in patent US8080553B2, “Methods and reagents for the treatment of immunoinflammatory disorders” (Zalicus Inc., priority 2003, dated 2011).
Values joined by “and” are separate entries in the source; they are usually repeats but may differ in a detail not shown here. Identical values can stand only once. Counter-ions that a name gives are not always drawn. Like-named read-outs stand apart in the source and are kept apart here.

How the values were obtained:
[1] = test system: TNFα secretion in white blood cells from human buffy coat; experiment: TNFα secretion assay, cells stimulated with phorbol 12-myristate 13-acetate and ionomycin (Tables 7-26); conditions: for percent inhibition of TNFα secretion: dipyridamole 0 μM; for inhibition at 0.3 µM: read-out: percent inhibition of TNFα secretion, dipyridamole 0.3 μM; for inhibition at 19 µM: read-out: percent inhibition of TNFα secretion, dipyridamole 19 μM; for inhibition at 39 µM: read-out: percent inhibition of TNFα secretion, dipyridamole 39 μM
Protocol: (§1) Drugs were added to the indicated concentration. […] The plate was then washed again with 0.1% Tween 20/PBS. An HRP-luminescent substrate was added to each well, and the light intensity of each well was measured using a plate luminometer.

[2] = test system: TNFα secretion in white blood cells from human buffy coat
Protocol: as §1

[3] = Homo sapiens, Nortriptyl (μM): 0, 0.52, 1, 2.1, 4.2, 8.3, 17, 33, 67
[4] = Homo sapiens, Ro-20-1724 (μM) by grid row: r5 0, r6 0.28, r7 0.56, r8 1.1, r9 2.2, r10 4.5, r11 9, r12 18, r13 36
[5] = Homo sapiens, amoxapine (μM) by grid row: r5 0, r6 0.25, r7 0.5, r8 1, r9 2, r10 4, r11 8, r12 16, r13 32
[6] = Homo sapiens, fluoxetine (μM) by grid row: r5 0, r6 0.45, r7 0.9, r8 1.8, r9 3.6, r10 7.2, r11 14, r12 29, r13 58
[7] = Homo sapiens, paroxetine (μM): 0, 0.21, 0.42, 0.83, 1.7, 3.3, 6.7, 13, 27

SMILES: C[C@]12C=CC(=O)C=C1CC[C@@H]1[C@@H]2[C@@H](O)C[C@@]2(C)[C@H]1CC[C@]2(O)C(=O)CO [Prednisolone]
- inhibition at 0.5 µM ([1]; Homo sapiens, read-out: percent inhibition of TNFα secretion, prednisolone 0.5 μM, dipyridamole (μM) by grid row: r5 0, r6 0.3, r7 0.61, r8 1.2, r9 2.4, r10 4.9, r11 9.7, r12 19, r13 39): 29.9%

SMILES: C[C@H]1C[C@H]2[C@@H]3CCC4=CC(=O)C=C[C@]4(C)[C@@]3(F)[C@@H](O)C[C@]2(C)[C@@]1(O)C(=O)CO [Betamethasone]
- inhibition [2]: 34.9% and 35.2%

SMILES: CCCC1O[C@@H]2C[C@H]3[C@@H]4CCC5=CC(=O)C=C[C@]5(C)[C@H]4[C@@H](O)C[C@]3(C)[C@]2(C(=O)CO)O1 (stereo partly shown) [Budesonide]
- inhibition at […] ([1]; Homo sapiens, read-out: percent inhibition of TNFα secretion, budesonide 35 nM, dipyridamole (μM as printed) by grid row: r5 0, r6 30, r7 121, r8 486, r9 1943, r10 7773): 36.3%

SMILES: COc1ccc(C2CNC(=O)C2)cc1OC1CCCC1 (stereo not shown) [Rolipram, 4-[3-(cyclopentyloxy)-4-methoxyphenyl]-2-pyrrolidone]
- inhibition at 0.5 µM ([1]; Homo sapiens, read-out: percent inhibition of TNFα secretion, rolipram 0.5 μM, dipyridamole (μM): 0, 0.15, 0.3, 0.61, 1.2, 2.4, 4.9, 9.7, 19): 36.8%
- inhibition at 1 µM ([1]; Homo sapiens, read-out: percent inhibition of TNFα secretion, rolipram 1 μM, dipyridamole (μM): 0, 0.15, 0.3, 0.61, 1.2, 2.4, 4.9, 9.7, 19): 38.9%

SMILES: CN1CCC(=C2c3ccccc3C=Cc3ccccc32)CC1 [Cyproheptadine HCl]
- percent inhibition of TNFα secretion ([1]; cyproheptadine HCl (μM) by grid row: r5 0, r6 0.24, r7 0.48, r8 0.96, r9 1.9, r10 3.9, r11 7.7, r12 15, r13 31): 29%

SMILES: CCOC(=O)N1CCC(=C2c3ccc(Cl)cc3CCc3cccnc32)CC1 [Loratadine]
- percent inhibition of TNFα secretion ([1]; loratadine (μM) by grid row: r5 0, r6 0.2, r7 0.41, r8 0.82, r9 1.6, r10 3.3, r11 6.5, r12 13, r13 26): 31%

SMILES: CC(C)C(=O)c1c(C(C)C)nn2ccccc12 [Ibudilast]
- inhibition at 0.5 µM ([1]; Homo sapiens, read-out: percent inhibition of TNFα secretion, ibudilast 0.5 μM, dipyridamole (μM): 0, 0.15, 0.3, 0.61, 1.2, 2.4, 4.9, 9.7, 19): 22.9%
- inhibition at 1 µM ([1]; Homo sapiens, read-out: percent inhibition of TNFα secretion, ibudilast 1 μM, dipyridamole (μM): 0, 0.15, 0.3, 0.61, 1.2, 2.4, 4.9, 9.7, 19): 37.4%
- inhibition at 2 µM ([1]; Homo sapiens, read-out: percent inhibition of TNFα secretion, ibudilast 2 μM, dipyridamole (μM): 0, 0.15, 0.3, 0.61, 1.2, 2.4, 4.9, 9.7, 19): 42.9%
- inhibition at 4 µM ([1]; Homo sapiens, read-out: percent inhibition of TNFα secretion, ibudilast 4 μM, dipyridamole (μM): 0, 0.15, 0.3, 0.61, 1.2, 2.4, 4.9, 9.7, 19): 45.9%
- inhibition at 8 µM ([1]; Homo sapiens, read-out: percent inhibition of TNFα secretion, ibudilast 8 μM, dipyridamole (μM): 0, 0.15, 0.3, 0.61, 1.2, 2.4, 4.9, 9.7, 19): 53.8%

SMILES: OCCN(CCO)c1nc(N2CCCCC2)c2nc(N(CCO)CCO)nc(N3CCCCC3)c2n1 [Dipyridamole, 2,6-bis(diethanolamino)-4,8-dipiperidinopyrimido(5,4-d)pyrimidine]
- inhibition at 0.3 µM [1, 3]: 14%
- inhibition at 0.3 µM [1, 4]: -1.96%
- inhibition at 0.3 µM [1, 5]: 19%
- inhibition at 0.3 µM [1, 6]: 18%
- inhibition at 0.3 µM [1, 7]: 21%
- inhibition at 19 µM [1, 3]: 64%
- inhibition at 19 µM [1, 4]: 64%
- inhibition at 19 µM [1, 6]: 62%
- inhibition at 19 µM [1, 7]: 60%
- inhibition at 39 µM [1, 3]: 80%
- inhibition at 39 µM [1, 5]: 78%
- inhibition at 39 µM [1, 6]: 76%
- inhibition at 39 µM [1, 7]: 76%
